For 1 compound, Kd results are on record in ChEMBL document CHEMBL5150074, “Structure-Based Design of a Dual-Targeted Covalent Inhibitor Against Papain-like and Main Proteases of SARS-CoV-2” (J Med Chem, 2022).

A short description of experiment [1]: Binding affinity to SARS-CoV-2 MPro C145A mutant assessed as dissociation constant by isothermal titration calorimetry assay. More on the design: species or system Severe acute respiratory syndrome coronavirus 2. (Isothermal titration calorimetry measures the heat released or taken up as one component is titrated into another.)
Experiment [2] in a line: Binding affinity to SARS-CoV-2 PLpro C111A mutant assessed as dissociation constant by isothermal titration calorimetry assay. On the set-up: species or system Severe acute respiratory syndrome coronavirus 2.

As a reminder, the Kd is a measure of binding affinity in units of concentration.

In the case of `Cl.O=C1C=C(Nc2ccccc2N2CCNCC2)C2=NS(=O)(=O)c3cccc1c32`, the Kd amounted to 1500 nM in experiment [1] and 2300 nM in experiment [2].
